Measurements from patent US10336721B2, “Biaryltriazole inhibitors of macrophage migration inhibitory factor” (YALE UNIVERSITY, priority 2015, dated 2019).
In brackets after ≈: the same amount, converted by molar mass.

Target: human MIF (Homo sapiens (Human), UniProt P14174)
Sequence (P14174 2-115): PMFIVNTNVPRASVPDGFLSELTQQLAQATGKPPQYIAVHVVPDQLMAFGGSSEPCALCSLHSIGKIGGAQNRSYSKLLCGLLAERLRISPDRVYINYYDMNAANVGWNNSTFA
Assay: Inhibition of tautomerase activity of human MIF (HPP substrate)
Assay type: biochemical
Details: MIF tautomerase, HPP substrate, 50 nM MIF
Work on `COCCOc1ccc2nc(-c3cn(-c4ccc(F)cc4)nn3)ccc2c1` [Example 3, 2-(1-(4-Fluorophenyl)-1H-1,2,3-triazol-4-yl)-6-(2-methoxyethoxy)quinoline] yielded a Ki of 8900 nM. In the case of `Cc1cc2ccccc2nc1-c1cn(-c2ccc(O)cc2)nn1` [Example 11, 4-(4-(3-Methylquinolin-2-yl)-1H-1,2,3-triazol-1-yl)phenol], the Ki is reported as 7300 nM. Work on `Cc1cc(-c2cn(-c3ccc(O)cc3)nn2)nc2ccccc12` [Example 12, 4-(4-(4-Methylquinolin-2-yl)-1H-1,2,3-triazol-1-yl)phenol] yielded a Ki of 2300 nM. Compound `COc1cccc2ccc(-c3cn(-c4ccc(F)cc4)nn3)nc12` [Example 14, 2-(1-(4-Fluorophenyl)-1H-1,2,3-triazol-4-yl)-8-methoxyquinoline] has a Ki of 56000 nM. Compound `COCCOc1cccc2ccc(-c3cn(-c4ccc(F)cc4)nn3)nc12` [Example 15, 2-(1-(4-Fluorophenyl)-1H-1,2,3-triazol-4-yl)-8-(3-methoxyethoxy)quinoline] has a Ki of 64000 nM. Work on `Oc1ccc(-n2cc(-c3ccc4cccc(Oc5ccccc5)c4n3)nn2)cc1` [Example 17, 4-(4-(8-Phenoxyquinolin-2-yl)-1H-1,2,3-triazol-1-yl)phenol] yielded a Ki of 2950 nM. For `Oc1ccc(-n2cc(-c3ccc4c(Oc5ccccc5)cccc4n3)nn2)cc1` [Example 18, 4-(4-(5-Phenoxyquinolin-2-yl)-1H-1,2,3-triazol-1-yl)phenol], the Ki was 370 nM. With `Oc1ccc(-n2cc(-c3ccc4cc(OCCCN5CCOCC5)ccc4n3)nn2)cc1` [Example 19, 4-(4-(6-(3-Morpholinopropoxy)quinolin-2-yl)-1H-1,2,3-triazol-1-yl)phenol] the Ki was 1950 nM. `Cc1cc2cc(OCCCN3CCOCC3)ccc2nc1-c1cn(-c2ccc(O)cc2)nn1` [Example 20, 4-(4-(3-Methyl-6-(3-morpholinopropoxy)quinolin-2-yl)-1H-1,2,3-triazol-1-yl)phenol] gave a Ki of 3120 nM. `Fc1ccc(-n2cc(-c3ccc4cc(OCCOCCN5CCOCC5)ccc4n3)nn2)cc1` [Example 23, 4-(2-(2-((2-(1-(4-Fluorophenyl)-1H-1,2,3-triazol-4-yl)quinolin-6-yl)oxy)ethoxy)ethyl)morpholine] gave a Ki of 29600 nM. In the case of `COCCOc1ccc(Oc2cccc3nc(-c4cn(-c5ccc(O)cc5)nn4)ccc23)cc1` [Example 24, 4-(4-(5-(4-(2-Methoxyethoxy)phenoxy)quinolin-2-yl)-1H-1,2,3-triazol-1-yl)phenol], the Ki is reported as 360 nM. For `COCCOc1cccc(Oc2cccc3nc(-c4cn(-c5ccc(O)c(F)c5)nn4)ccc23)c1` [Example 25, 2-Fluoro-4-(4-(5-(3-(2-methoxyethoxy)phenoxy)quinolin-2-yl)-1H-1,2,3-triazol-1-yl)phenol], the Ki was 82 nM. With `Oc1ccc(-n2cc(-c3ccc4cccnc4n3)nn2)cc1` [Example 26, 4-(4-(1,8-Naphthyridin-2-yl)-1H-1,2,3-triazol-1-yl)phenol] the Ki was 1480 nM. Compound `Oc1ccc(-n2cc(-c3ccc4ccc(OCCOCCN5CCOCC5)cc4n3)nn2)cc1` [Example 29, 4-(4-(7-(2-(2-Morpholinoethoxy)ethoxy)quinolin-2-yl)-1H-1,2,3-triazol-1-yl)phenol] has a Ki of 850 nM. For `Oc1ccc(-n2cc(-c3ccc4ccc(OCCOCCN5CCOCC5)cc4n3)nn2)cc1F` [Example 30, 2-Fluoro-4-(4-(7-(2-(2-morpholinoethoxy)ethoxy)quinolin-2-yl)-1H-1,2,3-triazol-1-yl)phenol], the Ki was 290 nM. For `COCCOc1ccc2nc(-c3cn(-c4ccc(O)cc4)nn3)ncc2c1` [Example 31, 4-(4-(6-(2-Methoxyethoxy)quinazolin-2-yl)-1H-1,2,3-triazol-1-yl)phenol], the Ki was 2350 nM. For `Oc1c(F)cc(-n2cc(-c3ccc4cc(OCCOCCN5CCOCC5)ccc4n3)nn2)cc1F` [Example 33, 2,6-Difluoro-4-(4-(6-(2-(2-morpholinoethoxy)ethoxy)quinolin-2-yl)-1H-1,2,3-triazol-1-yl)phenol], the Ki was 3750 nM. For `O=C(O)c1ccc(Oc2cccc3nc(-c4cn(-c5ccc(O)c(F)c5)nn4)ccc23)cc1` [Example 35, 4-((2-(1-(3-Fluoro-4-hydroxyphenyl)-1H-1,2,3-triazol-4-yl)quinolin-5-yl)oxy)benzoic acid], the Ki was 110 nM. In the case of `O=C(O)c1cccc(Oc2cccc3nc(-c4cn(-c5ccc(F)c(F)c5)nn4)ccc23)c1` [Example 36, 3-((2-(1-(3,4-Difluorophenyl)-1H-1,2,3-triazol-4-yl)quinolin-5-yl)oxy)benzoic acid], the Ki is reported as 4930 nM. `NCc1cccc(Oc2cccc3nc(-c4cn(-c5ccc(O)c(F)c5)nn4)ccc23)c1` [Example 37, 4-(4-(5-(3-(Aminomethyl)phenoxy)quinolin-2-yl)-1H-1,2,3-triazol-1-yl)-2-fluorophenol] showed a Ki of 568 nM. Work on `Oc1ccc(-n2cc(-c3ccc4c(Oc5cccc(OCCOCCN6CCOCC6)c5)cccc4n3)nn2)cc1F` [Example 38, 2-Fluoro-4-(4-(5-(3-(2-(2-morpholinoethoxy)ethoxy)phenoxy)quinolin-2-yl)-1H-1,2,3-triazol-1-yl)phenol] yielded a Ki of 128 nM. For `O=C(O)c1ccc(Oc2cccc3ccc(-c4cn(-c5ccc(O)c(F)c5)nn4)nc23)cc1` [Example 39, 4-((2-(1-(3-Fluoro-4-hydroxyphenyl)-1H-1,2,3-triazol-4-yl)quinolin-8-yl)oxy)benzoic acid], the Ki was 296 nM. Work on `O=C(O)c1cccc(Oc2cccc3ccc(-c4cn(-c5ccc(O)c(F)c5)nn4)nc23)c1` [Example 40, 3-((2-(1-(3-Fluoro-4-hydroxyphenyl)-1H-1,2,3-triazol-4-yl)quinolin-8-yl)oxy)benzoic acid] yielded a Ki of 112 nM. Work on `O=C(O)COc1ccc2ccc(-c3cn(-c4ccc(O)c(F)c4)nn3)nc2c1` [Example 41, 2-((2-(1-(3-Fluoro-4-hydroxyphenyl)-1H-1,2,3-triazol-4-yl)quinolin-7-yl)oxy)acetic acid] yielded a Ki of 2240 nM. Work on `O=C(O)CCCOc1ccc2ccc(-c3cn(-c4ccc(O)c(F)c4)nn3)nc2c1` [Example 42, 4-((2-(1-(3-Fluoro-4-hydroxyphenyl)-1H-1,2,3-triazol-4-yl)quinolin-7-yl)oxy)butanoic acid] yielded a Ki of 43 nM.

Same assay, conditions: read-out: % inhibition at 10 μM
`COCCOc1ccc(-c2cn(-c3ccc(Cl)cc3)nn2)nc1` [Example 4, 2-(1-(4-Chlorophenyl)-1H-1,2,3-triazol-4-yl)-5-(2-methoxyethoxy)pyridine] gave an inhibition at 10 µM of 3%. With `COCCOc1ccc2nc(-c3cn(-c4ccc(N)cc4)nn3)ccc2c1` [Example 5, 4-(4-(6-(2-Methoxyethoxy)quinolin-2-yl)-1H-1,2,3-triazol-1-yl)aniline] the inhibition at 10 µM was 13%. `COCCOc1ccc2nc(-c3cn(-c4ccc(OC)cc4)nn3)ccc2c1` [Example 6, 6-(2-Methoxyethoxy)-2-(1-(4-methoxyphenyl)-1H-1,2,3-triazol-4-yl)quinoline] showed an inhibition at 10 µM of 0%. `COCCOc1ccc2nc(-c3cn(-c4ccc(C#N)cc4)nn3)ccc2c1` [Example 7, 4-(4-(6-(2-Methoxyethoxy)quinolin-2-yl)-1H-1,2,3-triazol-1-yl)benzonitrile] gave an inhibition at 10 µM of 8%. `COCCOc1ccc2nc(-c3cn(-c4ccc(C(N)=O)cc4)nn3)ccc2c1` [Example 8, 4-(4-(6-(2-Methoxyethoxy)quinolin-2-yl)-1H-1,2,3-triazol-1-yl)benzamide] showed an inhibition at 10 µM of 0%. Compound `COCCOc1ccc2nc(-c3cn(-c4ccc(O)c(C)c4)nn3)ccc2c1` [Example 9, 4-(4-(6-(2-Methoxyethoxy)quinolin-2-yl)-1H-1,2,3-triazol-1-yl)-2-methylphenol] has an inhibition at 10 µM of 15%. With `COCCOc1ccc2nc(-c3cn(-c4ccc(O)c(OC)c4)nn3)ccc2c1` [Example 10, 2-Methoxy-4-(4-(6-(2-methoxyethoxy)quinolin-2-yl)-1H-1,2,3-triazol-1-yl)phenol] the inhibition at 10 µM was 8%. `Oc1ccc(-n2cc(-c3ccc4cccc(Cl)c4n3)nn2)cc1` [Example 13, 4-(4-(8-Chloroquinolin-2-yl)-1H-1,2,3-triazol-1-yl)phenol] showed an inhibition at 10 µM of 16%. In the case of `COc1ccc(-c2cccc3ccc(-c4cn(-c5ccc(O)cc5)nn4)nc23)cc1` [Example 16, 4-(4-(8-(4-Methoxyphenyl)quinolin-2-yl)-1H-1,2,3-triazol-1-yl)phenol], the inhibition at 10 µM is reported as 21%. `Clc1ccc(-n2cc(-c3ccc4cccnc4n3)nn2)cc1` [Example 27, 2-(1-(4-Chlorophenyl)-1H-1,2,3-triazol-4-yl)-1,8-naphthyridine] showed an inhibition at 10 µM of 9%.

Test system: not listed separately
Assay: Aqueous solubility
Assay type: physicochemical
Details: aqueous solvent (not further specified), μg compound/mL solvent
In the case of `Oc1ccc(-n2cc(-c3ccc4ccccc4n3)nn2)cc1` [Example 1, 4-(4-(Quinolin-2-yl)-1H-1,2,3-triazol-1-yl)phenol], the solubility is reported as 2.2 µg/mL (≈ 7.63 µM). Compound `COCCOc1ccc2nc(-c3cn(-c4ccc(O)cc4)nn3)ccc2c1` [Example 2, 4-(4-(6-(2-Methoxyethoxy)quinolin-2-yl)-1H-1,2,3-triazol-1-yl)phenol] has a solubility of 3.6 µg/mL (≈ 9.93 µM). `Oc1ccc(-n2cc(-c3ccc4cc(OCCOCCN5CCOCC5)ccc4n3)nn2)cc1` [Example 21, 4-(4-(6-(2-(2-Morpholinoethoxy)ethoxy)quinolin-2-yl)-1H-1,2,3-triazol-1-yl)phenol] gave a solubility of 48.5 µg/mL (≈ 105 µM). `Oc1ccc(-n2cc(-c3ccc4cc(OCCOCCN5CCOCC5)ccc4n3)nn2)cc1F` [Example 22, 2-Fluoro-4-(4-(6-(2-(2-morpholinoethoxy)ethoxy)quinolin-2-yl)-1H-1,2,3-triazol-1-yl)phenol] showed a solubility of 27.2 µg/mL (≈ 56.7 µM). For `NCCOCCOc1ccc2nc(-c3cn(-c4ccc(O)cc4)nn3)ccc2c1` [Example 28, 4-(4-(6-(2-(2-Aminoethoxy)ethoxy)quinolin-2-yl)-1H-1,2,3-triazol-1-yl)phenol], the solubility was 13.9 µg/mL (≈ 35.5 µM). Work on `O=C(O)c1cccc(Oc2cccc3nc(-c4cn(-c5ccc(O)c(F)c5)nn4)ccc23)c1` [Example 32, 3-((2-(1-(3-Fluoro-4-hydroxyphenyl)-1H-1,2,3-triazol-4-yl)quinolin-5-yl)oxy)benzoic acid] yielded a solubility of 47.2 µg/mL (≈ 107 µM). Compound `NCCOCCOc1ccc2nc(-c3cn(-c4ccc(O)c(F)c4)nn3)ccc2c1` [Example 34, 4-(4-(6-(2-(2-Aminoethoxy)ethoxy)quinolin-2-yl)-1H-1,2,3-triazol-1-yl)-2-fluorophenol] has a solubility of 9.1 µg/mL (≈ 22.2 µM). Work on `O=C(O)CCCOc1ccc2nc(-c3cn(-c4ccc(O)c(F)c4)nn3)ccc2c1` [Example 43, 4-((2-(1-(3-Fluoro-4-hydroxyphenyl)-1H-1,2,3-triazol-4-yl)quinolin-6-yl)oxy)butanoic acid] yielded a solubility of 19.2 µg/mL (≈ 47 µM).
